Reference: patent US20060286032A1, “A radiosotope-chitosan complex for treatment of prostate cancer” (priority 2003, published 2006)
Marks after values point to notes of the source that are not given here.

Columns and labels:
[1] = Autoradiography, complex solution versus ^166Ho(NO3)3.5H2O solution not containing chitosan, injected into the prostate gland; type: in vivo, rats; settings: for Radioactive concentration, Administration site / Radioactive concentration, End region of femur / Radioactive concentration, Liver / Radioactive concentration, Spine / Radioactive concentration, Spleen / Radioactive concentration, Kidney: 25 μl (about 100 μCi); for Radioactivity retained in the administration site, the prostate gland: 24 hrs after being administered
Description: To investigate advantages of the ^166Ho-chitosan complex, autoradiography was carried out for a group administered with the complex solution and a control group administered with a ^166Ho(NO3)3.5H2O solution not containing chitosan. In the complex solution administration group, 25 μl of the complex solution was administered, which was equal to about 100 μCi. The control group was administered with a ^166Ho(NO3)3.5H2O solution not containing chitosan with the same dosage and radioactive concentration as in the complex solution administration group. This test was carried out according to the same method as in Experimental Example 1, and each test drug was administered to the prostate gland. After 0.5, 2, 6 and 24 hrs, rats were sacrificed and evaluated by autoradiography. The measured radioactive concentrations (% ID/g) in various organs after injection of the complex solution and the ^166Ho(NO3)3.5H2O solution are given in Table 2, below.

[2] = test system: DU-145 carcinoma cell line (hormone-independent prostate carcinoma cell line); assay: Antitumor effect in DU-145 subcutaneous tumor model, intratumoral injection; type: in vivo, nude mice; settings: for Tumor volume after injection / Tumor growth inhibition rate: non-radioactive complex group; for Tumor volume after injection: 0.2 ml intratumoral; for Tumor growth inhibition rate: last day of the test (2 wks), tumor volume vs control
Description: To investigate the effect of the complex on hormone-independent prostate cancer, a DU-145 carcinoma cell line (hormone-independent prostate carcinoma cell line), which is rarely produces prostate-specific antigen, was transplanted into nude mice and the antitumor effect of the complex was evaluated.
The DU-145 cells were cultured in 10% FBS (fetal bovine serum)-containing F-12K(Kaign's Modification of Ham's F-12 medium) in a 5% CO2 incubator at 37° C., and 2×10^5 cells/0.2 ml/head were subcutaneously transplanted into the lumbar portion of male 6-week nude mice. When the long axis of the tumor was about 1 cm long, the complex solution was intratumorally injected. The administration volume of the test drug was 0.2 ml. The mice were divided into four groups: a control group (no treatment); two administration groups administered with the complex solution at doses of 10 mCi and 20 mCi per 1 cm^3 tumor; and another administration group administered with a non-radioactive complex solution [Holmium-165 (^165Ho)-chitosan complex solution]. Two weeks after administration with the complex solution, the mice were histopathologically examined to evaluate the antitumor effect and toxicity to major organs of the complex.

[3] = test system: AIT carcinoma (androgen-independent carcinoma cell line); assay: Antitumor effect in AIT subcutaneous tumor model; type: in vivo, noble rats; settings: non-radioactive complex group; for Tumor growth inhibition rate: four weeks, tumor weight vs control
Description: To evaluate the effect of the complex on hormone-independent prostate cancer, an AIT carcinoma (androgen-independent carcinoma cell line) was transplanted into noble rats, and the antitumor effect of the complex was examined.
An androgen-independent, prostate carcinoma cell line, AIT, which is derived from noble rats, was cultured in 10% FBS-containing DMEM at 37° under 5% CO2. The cultured carcinoma cells were suspended in sterile physiological saline at a density of 4×10^6 cells/ml, and 2×10^6 cells were subcutaneously transplanted into the lateral abdomen of male 5-week noble rats. When the long axis of the tumor was about 1 cm long (in this test, 14 days after transplantation), the rats were grouped according to the tumor mass. The kit prepared in Example 2 was used as a test drug, and was administered at the same dose as in Experimental Example 5, that is, 0.2 ml. The rats were divided into four groups: a control group (no treatment); two administration groups administered with the complex solution at 10 mCi and 20 mCi per 1 cm^3 tumor; and another administration group administered with a non-radioactive complex solution (Holmium-165 (^165Ho)-chitosan complex solution). Four weeks after administration with the complex solution, tumors were excised from the rats, and tumor growth inhibition rates were measured by weighing the tumors.

[4] = test system: AIT prostate carcinoma cells; assay: Antitumor effect in orthotopic tumor model, AIT transplanted into the prostate gland; type: in vivo, noble rats; settings: non-radioactive complex group
Description: In addition to the subcutaneous tumor model tested in Experimental Example 6, the antitumor effect and side effects of the complex solution was examined in an orthotopic tumor model where AIT prostate carcinoma cells had been directly transplanted into the prostate gland. AIT cells were cultured in 10% FBS-containing DMEM at 37° under 5% CO2. The cultured carcinoma cells were suspended in sterile physiological saline at a density of 2×10^6 cells/0.05 ml. After noble rats were anesthetized with fentanyl and the abdomen was opened, 2×10^6 cells per rat were transplanted into the prostate gland of the rats. Seven days after carcinoma transplantation, the rats were randomly allocated. The kit prepared in Example 2 was used as a test drug, and 0.05 ml of the kit was administered. The rats were divided into four groups: a control group (no treatment); two administration groups administered with 0.5 mCi and 1.0 mCi of the complex solution; and another administration group administered with a non-radioactive complex solution (Holmium-165 (^165Ho)-chitosan complex solution). Two and four weeks after administration of the complex solution, the rats were sacrificed, and tumors were excised from the rats and weighed.

[5] = Histopathological examination of organs of rats of the orthotopic model (hematoxylin and eosin); type: in vivo, noble rats; settings: last day of the test
Text: From all rats tested in Experimental Example 7, which were sacrificed on the last day of the test, the heart, lung, liver, kidney, spleen, testes, epididymis, seminal vesicle, bladder, rectum and tumor tissues were excised, embedded in paraffin according to general tissue processing, and sectioned into a thickness of 3 μm. The tissue sections were subjected to double staining with hematoxylin and eosin and histopathologically examined.

[6] = listed as non-radioactive complex solution

In the case of O.O.O.O.O.O=[N+]([O-])[O-].O=[N+]([O-])[O-].O=[N+]([O-])[O-].[166Ho+3] [^166Ho, ^166Ho(NO3)3.5H2O], the “Radioactive concentration, Administration site” value ([1]; 30 min) is reported as 4532 ± 513.4 % ID/g, the “Radioactive concentration, End region of femur” value ([1]; 30 min) is reported as 0.02^b % ID/g and the “Radioactive concentration, Liver” value ([1]; 30 min) is reported as 0.02 ± 0.011 % ID/g. For the same compound, the “Radioactive concentration, Spine” value ([1]; 30 min) was 0.01^b % ID/g, the “Radioactive concentration, Administration site” value ([1]; 2 hrs) was 4404 ± 1806.8 % ID/g and the “Radioactive concentration, End region of femur” value ([1]; 2 hrs) was 0.11 ± 0.104 % ID/g. For the same compound, the “Radioactive concentration, Liver” value ([1]; 2 hrs) was 0.04 ± 0.024 % ID/g, the “Radioactive concentration, Spine” value ([1]; 2 hrs) was 0.03 ± 0.030 % ID/g and the “Radioactive concentration, Spleen” value ([1]; 2 hrs) was 0.03 ± 0.009 % ID/g. For the same compound, the “Radioactive concentration, Administration site” value ([1]; 6 hrs) was 2197 ± 1334.3 % ID/g, the “Radioactive concentration, End region of femur” value ([1]; 6 hrs) was 0.32 ± 0.068 % ID/g and the “Radioactive concentration, Kidney” value ([1]; 6 hrs) was 0.03 ± 0.008 % ID/g. For the same compound, the “Radioactive concentration, Liver” value ([1]; 6 hrs) was 0.12 ± 0.022 % ID/g, the “Radioactive concentration, Spine” value ([1]; 6 hrs) was 0.07 ± 0.010 % ID/g and the “Radioactive concentration, Spleen” value ([1]; 6 hrs) was 0.07 ± 0.006 % ID/g. For the same compound, the “Radioactive concentration, Administration site” value ([1]; 24 hrs) was 1067 ± 941.8 % ID/g, the “Radioactive concentration, End region of femur” value ([1]; 24 hrs) was 1.74 ± 0.424 % ID/g and the “Radioactive concentration, Kidney” value ([1]; 24 hrs) was 0.07 ± 0.025 % ID/g. For the same compound, the “Radioactive concentration, Liver” value ([1]; 24 hrs) was 0.18 ± 0.150 % ID/g, the “Radioactive concentration, Spine” value ([1]; 24 hrs) was 0.45 ± 0.123 % ID/g and the “Radioactive concentration, Spleen” value ([1]; 24 hrs) was 0.11 ± 0.073 % ID/g. The “Radioactivity retained in the administration site, the prostate gland” value ([1]; listed as 166Ho(NO3)3.5H2O solution) was “about 30%”, the “Radioactivity retained in the administration site, the prostate gland” value ([1]; listed as radioisotope solution not containing chitosan) was 30% and the “Radioactive concentration in liver, spleen, kidney and end region of the femur, fold higher than in the complex solution group” value ([1]; after 6 and 24 hrs) was 2 to 4 fold. For the same compound, the “Radioactive concentration in the administration site, fold lower than in the complex solution group” value ([1]; after 6 hrs) was 2 fold and the “Radioactive concentration in the administration site, fold lower than in the complex solution group” value ([1]; after 24 hrs) was 3 fold.
For “Holmium-165 (^165Ho)-chitosan complex [Non-radioactive complex, reference compound]”, the “Change in tumor volume” value ([2]; last day of the test) was “greatly increased”, the “Tumor volume after injection” value ([2]; 1 wk) was 1.24 ± 0.61 cm^3 and the “Tumor volume after injection” value ([2]; 2 wks) was 5.03 ± 1.51 cm^3. The “Tumor growth inhibition rate” value [2] was 23.1%, the “Tumor growth inhibition rate” value [2, 6] was “about 20%” and the Tumor weight ([3]; four weeks after administration) was 18.1 ± 4.37 g. For the same compound, the “Tumor growth inhibition rate” value [3] was 20.4%, the “Tumor growth inhibition rate” value [3, 6] was “about 20%” and the Tumor weight ([4]; 2 wks after administration) was 1.93 ± 0.29 g. For the same compound, the Tumor weight ([4]; 4 wks after administration) was 32.62 ± 2.32 g and the “Histopathological changes in organs other than the tumor tissue (heart, lung, liver, kidney, spleen, testes, epididymis, seminal vesicle, bladder, rectum)” value [5] was “no abnormalities in adjacent organs were found”.
